Laboratory results taken from the NIST ThermoML archive (doi:10.1021/je700152c).
± gives the expanded uncertainty stated by the source.

Experiment: molar heat capacity at saturation pressure

CCCCn1cc[n+](C)c1.Cc1ccc(S(=O)(=O)[O-])cc1 [1-butyl-3-methylimidazolium tosylate]
Conditions	molar heat capacity [J/K/mol]
244.04 K, Crystal 1	352.94 ± 3.7
245.21 K, Metastable crystal	365.98 ± 3.7
245.66 K, Crystal 1	354.49 ± 3.7
245.73 K, Crystal 1	353.87 ± 3.7
245.93 K, Crystal 1	355.11 ± 3.7
247.08 K, Metastable crystal	367.84 ± 3.7
247.55 K, Crystal 1	356.97 ± 3.7
247.62 K, Crystal 1	356.04 ± 3.7
247.82 K, Crystal 1	357.29 ± 3.7
248.96 K, Metastable crystal	369.39 ± 3.7
249.44 K, Crystal 1	359.15 ± 3.7
249.51 K, Crystal 1	358.53 ± 3.7
249.71 K, Crystal 1	359.46 ± 3.7
250.83 K, Metastable crystal	371.25 ± 3.7
251.33 K, Crystal 1	361.32 ± 3.7
251.4 K, Crystal 1	360.39 ± 3.7
251.59 K, Crystal 1	361.63 ± 3.7
252.7 K, Metastable crystal	372.81 ± 3.7
253.22 K, Crystal 1	363.49 ± 3.7
253.29 K, Crystal 1	362.87 ± 3.7
253.47 K, Crystal 1	363.8 ± 3.7
254.58 K, Metastable crystal	374.67 ± 3.7
255.11 K, Crystal 1	365.67 ± 3.7
255.17 K, Crystal 1	364.74 ± 3.7
255.35 K, Crystal 1	365.98 ± 3.7
256.45 K, Metastable crystal	376.53 ± 4
256.99 K, Crystal 1	367.84 ± 3.7
257.06 K, Crystal 1	367.22 ± 3.7
257.23 K, Crystal 1	368.15 ± 3.7
258.32 K, Metastable crystal	378.39 ± 4
258.88 K, Crystal 1	370.01 ± 3.7
258.94 K, Crystal 1	369.08 ± 3.7
259.11 K, Crystal 1	370.32 ± 3.7
260.2 K, Metastable crystal	380.26 ± 4
260.77 K, Crystal 1	372.19 ± 3.7
260.82 K, Crystal 1	371.56 ± 3.7
261 K, Crystal 1	372.5 ± 3.7
262.07 K, Metastable crystal	381.81 ± 4
262.65 K, Crystal 1	374.36 ± 3.7
262.71 K, Crystal 1	373.43 ± 3.7
262.87 K, Crystal 1	374.67 ± 3.7
263.94 K, Metastable crystal	383.36 ± 4
264.53 K, Crystal 1	376.22 ± 4
264.59 K, Crystal 1	375.6 ± 3.7
264.75 K, Crystal 1	376.53 ± 4
265.82 K, Metastable crystal	385.53 ± 4
266.42 K, Crystal 1	378.39 ± 4
266.47 K, Crystal 1	377.46 ± 4
266.63 K, Crystal 1	378.39 ± 4
267.69 K, Metastable crystal	387.4 ± 4
268.31 K, Crystal 1	380.57 ± 4
268.36 K, Crystal 1	379.63 ± 4
268.52 K, Crystal 1	380.88 ± 4
269.56 K, Metastable crystal	388.95 ± 4
270.19 K, Crystal 1	382.43 ± 4
270.25 K, Crystal 1	381.81 ± 4
270.4 K, Crystal 1	382.74 ± 4
271.43 K, Metastable crystal	391.12 ± 4
272.08 K, Crystal 1	384.6 ± 4
272.14 K, Crystal 1	383.36 ± 4
272.29 K, Crystal 1	384.6 ± 4
273.3 K, Metastable crystal	393.6 ± 4
273.97 K, Crystal 1	386.46 ± 4
274.03 K, Crystal 1	385.53 ± 4
274.19 K, Crystal 1	386.46 ± 4
275.16 K, Metastable crystal	396.09 ± 4
275.87 K, Crystal 1	388.64 ± 4
275.92 K, Crystal 1	388.02 ± 4
276.08 K, Crystal 1	388.33 ± 4
277.01 K, Metastable crystal	399.5 ± 4
277.76 K, Crystal 1	391.12 ± 4
277.8 K, Crystal 1	390.5 ± 4
277.97 K, Crystal 1	390.81 ± 4
278.86 K, Metastable crystal	403.54 ± 4
279.64 K, Crystal 1	393.6 ± 4
279.67 K, Crystal 1	393.29 ± 4
279.85 K, Crystal 1	393.6 ± 4
280.7 K, Metastable crystal	407.57 ± 4.3
281.51 K, Crystal 1	396.71 ± 4
281.53 K, Crystal 1	397.02 ± 4
281.71 K, Crystal 1	397.02 ± 4
282.53 K, Metastable crystal	410.68 ± 4.3
